Test results from patent US9062074B2, “(9E)-15-(2-pyrrolidin-1-yl-ethoxy)-7,12,25-trioxa-19,21,24-triaza-tetracyclo[18.3.1.1(2.5).1(14,18)]hexacosa-1(24),2,4,9,14,16,18(26),20,22-nonaene citrate salt” (CTI BioPharma Corp., priority 2009, dated 2015).
Where a name gives a salt, the structure may show the parent alone. Values belong to the compound of their own block, whether it stands above or below them.

Tests used:
Format in all cases: physicochemical
[1] = Phase stability by XRPD after storage at 40° C. and 75% relative humidity for one week; conditions: solid form by low resolution XRPD after one week
Method: Condition 2 (Low Resolution)
X-Ray Powder Diffraction patterns were also collected on a Bruker D8 diffractometer using Cu K[…] radiation (40 kV, 40 mA), θ-2θ goniometer, and divergence of V4 and receiving slits, a Ge monochromator and a Lynxeye detector. The instrument is performance checked using a certified Corundum standard (NIST 1976). The software used for data collection was Diffrac Plus XRD Commander v2.5.0 and the data were analysed and presented using Diffrac Plus EVA v 11.0.0.2 or v 13.0.0.2. Samples were run under ambient conditions as flat plate specimens using powder as received. Approximately 15 mg of the sample was gently packed into a cavity cut into polished, zerobackground (510) silicon wafer. The sample was rotated in its own plane during analysis. The details of the data collection are:
The samples which had been prepared for the collection of low resolution XRPD traces were placed in a chamber maintained at 40° C. and 75% relative humidity. After one week the samples were reanalysed by low resolution XRPD (Condition 2), to check for phase changes. It can be seen that no phase change has occurred, and that citrate salts of the invention are stable for at least one week under these conditions.

[2] = Thermogravimetric Analysis (TGA)
Method: Thermogravimetric Analysis (TGA) data were collected on a Mettler TGA/SDTA 851e equipped with a 34 position autosampler. The instrument was temperature calibrated using certified indium. Typically 5-30 mg of each sample was loaded onto a pre-weighed aluminium crucible and was heated at 10° C.min^−1 from ambient temperature to 350° C. A nitrogen purge at 50 ml.min^−1 was maintained over the sample. The instrument control and data analysis software was STARe v9.10.

[3] = Differential Scanning Calorimetry (DSC); conditions: heated at 10° C.min^−1
Method: Differential Scanning Calorimetry (DSC) data were collected on a Mettler DSC 823e equipped with a 34 position auto-sampler. The instrument was calibrated for energy and temperature using certified indium. Typically 0.5-3 mg of each sample, in a pin-holed aluminium pan, was heated at 10° C.min^−1 from 25° C. to 350° C. A nitrogen purge at 50 ml.min^−1 was maintained over the sample. The instrument control and data analysis software was STARe v9.10.

[4] = Solubility assessment (solvent added in 10 volume aliquots)
Method: For each solvent investigated, approximately 8 mg of compound 1 was weighed into an 8 ml screw top glass vial. The solvent was added in 10 volume aliquots and the mixture sonicated and warmed (with a hot-air gun) to encourage dissolution. If dissolution was not achieved after the addition of 100 volumes of solvent, a further 100 volumes was added.

[5] = Polymorphism assessment (XRPD after 25° C./50° C. cycles in solvent)
Method: The vials were then placed in a humidity chamber and subjected to cycles of 25° C./50° C. (8 hour cycles) for 24 hours. At the end of this time the samples were examined and then left with loosened lids to allow for evaporation of the solvent. Those samples which had dried out were then transferred to a quartz array, whilst those for which there was still solvent present, were filtered under vacuum onto a sinter. The samples were then analysed by XRPD to assess their crystalline state and form.

[6] = Gravimetric Vapour Sorption (GVS)
Method: Sorption isotherms were obtained using a SMS DVS Intrinsic moisture sorption analyser, controlled by SMS Analysis Suite software. The sample temperature was maintained at 25° C. by the instrument controls. The humidity was controlled by mixing streams of dry and wet nitrogen, with a total flow rate of 200 ml.min^−1. The relative humidity was measured by a calibrated Rotronic probe (dynamic range of 1.0-100% RH), located near the sample. The weight change, (mass relaxation) of the sample as a function of % RH was constantly monitored by the microbalance (accuracy ±0.005 mg). Typically 5-20 mg of sample was placed in a tared mesh stainless steel basket under ambient conditions. The sample was loaded and unloaded at 40% RH and 25° C. (typical room conditions). A moisture sorption isotherm was performed as outlined below (2 scans giving 1 complete cycle). The standard isotherm was performed at 25° C. at 10% RH intervals over a 0.5-90% RH range.
The hygroscopicity of the citrate was investigated by carrying out a gravimetric vapour sorption experiment on Batch 4. A sample of approximately 20 mg was held at 25° C. whilst the humidity of its environment was changed through two complete cycles. […] The sample takes longer to reach equilibrium in the early stages of the experiment. This may be due to displacement of residual solvent.

[7] = Solubility assessment (solvent added in 10 volume aliquots); remark: listed apart in the source

- Phase Stability 1 wk @ 40° C./75% RH [1]: Crystalline Form 1
- Thermogravimetric Analysis weight change ([2]; 160 to 250° C.): −20% w/w 160 to 250 °C
- Thermogravimetric Analysis weight change ([2]; ambient to 160° C.): −0.3% w/w ambient to
- Differential Scanning Calorimetry complex endotherm onset (significant thermal event) [3]: onset 176 °C
SMILES: C1=C2COC/C=C/COCc3cc(ccc3OCCN3CCCC3)Nc3nccc(n3)C(=C1)O2 [Batch 6]

SMILES: C1=C2COC/C=C/COCc3cc(ccc3OCCN3CCCC3)Nc3nccc(n3)C(=C1)O2 [Compound I, 9E-15-(2-pyrrolidin-1-yl-ethoxy)-7,12,25-trioxa-19,21,24-triaza-tetracyclo[18.3.1.1(2,5).1(14,18)]hexacosa-1(24),2,4,9,14,16,18(26),20,22-nonaene]
- total dissolution in solvent screen ([4]; 11 solvents, up to 200 volumes): total dissolution was only achieved in water

- solid form of recovered solid (XRPD) ([5]; aqueous solution allowed to evaporate): amorphous
- solid form of residues (XRPD) ([5]; organic solvent screening samples): Form 1
- solubility in organic solvents ([4]; organic solvents of the screen): extremely limited
- hygroscopicity ([6]; GVS, 0% RH to 90% RH): not hygroscopic
- maximum weight difference ([6]; between 0% RH and 90% RH, 25° C.): less than 1 % w/w
- level at which the salt dissolves in water [7]: ≥ 100000 µg/mL
SMILES: C1=C2COC/C=C/COCc3cc(ccc3OCCN3CCCC3)Nc3nccc(n3)C(=C1)O2 [citrate, 9E-15-(2-pyrrolidin-1-yl-ethoxy)-7,12,25-trioxa-19,21,24-triaza-tetracyclo[18.3.1.1(2,5).1(14,18)]hexacosa-1(24),2,4,9,14,16,18(26),20,22-nonaene citrate]
